For test [1], the target named is T1, Arabidopsis HPPD variant Q293N (Arabidopsis thaliana, UniProt P93836, Q293N).
T1 construct: His6 (N); made in house; host or cells: E. coli BL21 (DE3)
Nature of the test: HPPD activity assay, mutant enzyme. It is filed as biochemical. As to the method: (§1) HPPD produces homogentisic acid and CO2 from 4-hydroxyphenylpyruvate (4-HPP) and O2. The activity assay for HPPD is based on the analysis of homogentisic acid by reversed phase HPLC.
(§2) The assay mixture can contain 150 mM potassium phosphate buffer pH 7.0, 50 mM L-ascorbic acid, 1 μM FeSO4 and 7 μg of purified enzyme in a total volume of 1 ml.
(§3) Inhibitors are dissolved in DMSO (dimethylsulfoxide) to a concentration of 20 mM or 0.5 mM, respectively. From this stock solution serial five-fold dilutions are prepared in DMSO, which are used in the assay. The respective inhibitor solution accounts for 1% of the assay volume. Thus, final inhibitor concentrations range from 200 μM to 2.5 nM or from 5 μM to 63 pM, respectively.
(§4) After a preincubation of 30 min the reaction is started by adding 4-HPP to a final concentration of 0.1 mM. The reaction is allowed to proceed for 120 min at room temperature. The reaction is stopped by addition of 100 μl of 4.5 M phosphoric acid.
(§5) The sample is extracted on an Oasis® HLB cartridge 3 cc/60 mg (Waters) that was preequilibrated with 63 mM phosphoric acid. L-ascorbic acid is washed out with 3 ml of 63 mM phosphoric acid. Homogentisate is eluted with 1 ml of a 1:1 mixture of 63 mM phosphoric acid and methanol (w/w).
(§6) 10 μl of the eluate is analyzed by reversed phase HPLC on a Symmetry® C18 column (particle size 3.5 μm, dimensions 4.6×100 mm; Waters) using 5 mM H3PO4/15% ethanol (w/w) as an eluent.
(§7) Homogentisic acid is detected electrochemically and quantified by measuring peak areas (Empower software; Waters).
(§8) Activities are normalized by setting the uninhibited enzyme activity to 100%. IC50 values are calculated using non-linear regression.
(§9) The assay mixture can contain 150 mM potassium phosphate buffer pH 7.0, 50 mM L-ascorbic acid, 100 μM Catalase (Sigma-Aldrich), 1 μM FeSO4 and 0.2 units of purified HPPD enzyme in a total volume of 505 μl. 1 unit is defined as the amount of enzyme that is required to produce 1 nmol of HGA per minute at 20° C.
(§10) After a preincubation of 30 min the reaction is started by adding 4-HPP to a final concentration of 0.05 mM. The reaction is allowed to proceed for 45 min at room temperature. The reaction is stopped by the addition of 50 μl of 4.5 M phosphoric acid. The sample is filtered using a […] pore size PVDF filtration device.
(§11) 5 μl of the cleared sample is analyzed on an Atlantis T3 column (particle size 3 μm, dimensions 3×50 mm; Waters) by isocratic elution using 90% 10 mM NaH2PO4 pH 2.2, 10% methanol (v/v).
(§12) HGA is detected electrochemically at 750 mV (mode: DC; polarity: positive) and quantified by integrating peak areas (Empower software; Waters).
(§13) Inhibitors are dissolved in DMSO (dimethylsulfoxide) to a concentration of 0.5 mM. From this stock solution serial five-fold dilutions are prepared in DMSO, which are used in the assay. The respective inhibitor solution accounts for 1% of the assay volume. Thus, final inhibitor concentrations range from 5 μM to 320 pM, respectively. Activities are normalized by setting the uninhibited enzyme activity to 100%. IC50 values are calculated using non-linear regression.
(§14) Purified, mutant HPPD enzymes are obtained by the methods described above. Dose response and kinetic measurements are carried out using the described HPPD activity assay. Apparent michaelis constants (Km) and maximal reaction velocities (Vmax) are calculated by non-linear regression with the software GraphPad Prism 5 (GraphPad Software, La Jolla, USA) using a substrate inhibition model. Apparent kcat values are calculated from Vmax assuming 100% purity of the enzyme preparation. Weighted means (by standard error) of Km and IC50 values are calculated from at least three independent experiments. The Cheng-Prusoff equation for competitive inhibition (Cheng, Y. C.; Prusoff, W. H. Biochem Pharmacol 1973, 22, 3099-3108) is used to calculate dissociation constants (Ki). Examples of the data obtained are depicted in Table 13.

The target of test [2] is T2, Arabidopsis HPPD variant Q293H (Arabidopsis thaliana, UniProt P93836, Q293H).
T2 construct: His6 (N); made in house; host or cells: E. coli BL21 (DE3)
T2 sequence (P93836 whole entry Q293H): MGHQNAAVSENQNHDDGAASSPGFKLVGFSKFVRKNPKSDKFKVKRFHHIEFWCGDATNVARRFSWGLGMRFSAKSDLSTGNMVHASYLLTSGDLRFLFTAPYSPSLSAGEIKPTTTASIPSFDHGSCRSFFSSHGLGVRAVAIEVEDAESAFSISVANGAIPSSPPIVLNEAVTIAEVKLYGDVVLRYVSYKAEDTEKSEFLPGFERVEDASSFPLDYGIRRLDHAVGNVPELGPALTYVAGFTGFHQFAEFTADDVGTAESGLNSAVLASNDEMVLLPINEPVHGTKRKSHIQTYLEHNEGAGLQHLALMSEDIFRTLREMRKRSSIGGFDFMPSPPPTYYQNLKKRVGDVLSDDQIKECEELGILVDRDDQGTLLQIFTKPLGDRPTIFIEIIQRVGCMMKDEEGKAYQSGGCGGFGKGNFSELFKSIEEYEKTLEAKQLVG
Nature of the test: HPPD activity assay, mutant enzyme. It is filed as biochemical. As to the method:
as §1, §2, §3, §4, §5, §6, §7, §8, §9, §10, §11, §12, §13, §14

The next test deals with T3, Arabidopsis HPPD (Arabidopsis thaliana, UniProt P93836).
T3 construct: His6 (N); made in house; host or cells: E. coli BL21 (DE3)
T3 sequence (P93836 1-445): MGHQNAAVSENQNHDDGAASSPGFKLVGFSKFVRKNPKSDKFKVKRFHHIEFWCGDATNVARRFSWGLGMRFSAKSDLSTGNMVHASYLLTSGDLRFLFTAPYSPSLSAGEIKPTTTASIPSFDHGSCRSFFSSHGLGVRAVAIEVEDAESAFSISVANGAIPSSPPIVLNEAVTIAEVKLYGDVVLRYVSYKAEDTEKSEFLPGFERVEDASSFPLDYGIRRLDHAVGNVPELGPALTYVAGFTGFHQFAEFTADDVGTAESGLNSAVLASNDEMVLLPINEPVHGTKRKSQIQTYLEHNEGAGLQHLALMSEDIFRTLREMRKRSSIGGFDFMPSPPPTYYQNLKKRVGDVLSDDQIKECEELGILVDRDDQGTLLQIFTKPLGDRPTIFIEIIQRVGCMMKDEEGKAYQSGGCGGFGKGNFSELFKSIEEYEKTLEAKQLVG
The experiment in a line: HPPD activity assay (homogentisic acid by HPLC), wildtype enzyme. It is filed as biochemical. Conditions: Table 11, calculated from IC50 with Cheng-Prusoff equation, read-out: dissociation constant Ki. The method, then: as §1, §2, §3, §4
The sample is extracted on an Oasis® HLB cartridge 3 cc/60 mg (Waters) that was preequilibrated with 63 mM phosphoric acid. L-ascorbic acid is washed out with 3 ml of 63 mM phosphoric acid. […]
as §6, §7
Activities are normalized by setting the uninhibited enzyme activity to 100%. IC50 values are calculated using non-linear regression. […]
as §11, §12
Inhibitors are dissolved in DMSO (dimethylsulfoxide) to a concentration of 0.5 mM. […] IC50 values are calculated using non-linear regression. […]

The target of another test is Chlamydomonas HPPD1 (Chlamydomonas reinhardtii, UniProt A0A2K3DET7). Nature of the test: HPPD activity assay, wildtype enzyme. It is filed as biochemical. Particulars: calculated from IC50 with Cheng-Prusoff equation, read-out: dissociation constant Ki. As to the method:
as §1, §2
Inhibitors are dissolved in DMSO (dimethylsulfoxide) to a concentration of 20 mM or 0.5 mM, respectively. From this stock solution serial five-fold dilutions are prepared in DMSO, which are used in the assay. The respective inhibitor solution accounts for 1% of the assay volume.
as §4, §8
The assay mixture can contain 150 mM potassium phosphate buffer pH 7.0, 50 mM L-ascorbic acid, 100 μM Catalase (Sigma-Aldrich), 1 μM FeSO4 and 0.2 units of purified HPPD enzyme in a total volume of 505 μl. […]
as §12
Inhibitors are dissolved in DMSO (dimethylsulfoxide) to a concentration of 0.5 mM. […] IC50 values are calculated using non-linear regression.
Using methods which are described in the above examples or well known in the art, purified, recombinant wildtype HPPD enzymes are characterized with respect to their kinetic properties and sensitivity towards HPPD inhibiting herbicides. Apparent michaelis constants (Km) and maximal reaction velocities (Vmax) are calculated by non-linear regression with the software GraphPad Prism 5 (GraphPad Software, La Jolla, USA) using a substrate inhibition model. […] Weighted means (by standard error) of Km and IC50 values are calculated from at least three independent experiments.

The subject of test [3] is Chlamydomonas strain CMr06. The experiment in a line: Growth inhibition of Chlamydomonas strains (tolerance). It is filed as cell-based, Chlamydomonas reinhardtii. As to the method:
(§15) Algae cells of Chlamydomonas reinhardtii strains CC-503 and CC-1691 (Duke University, Durham, USA) are propagated in TAP medium (Gorman and Levine (1965) PNAS 54: 1665-1669) by constant shaking at 100 rpm, 22° C. and 30 μmol Phot*m^−2*[…] light illumination. Scenedesmus obliquus (University of Gottingen, Germany) are propagated in algae medium as described (Boger and Sandmann, (1993) In: Target assays for modern herbicides and related phytotoxic compounds, Lewis Publishers) under same culturing conditions as mentioned for Chlamydomonas. Compound screening is performed at 450 μmol Phot*m^−2*[…] illumination.
(§16) Sensitive strains of Chlamydomonas reinhardtii or Scenedesmus obliquus (Tables 14, 15) are mutated with 0.14 […] (EMS) for 1 h as described by Loppes (1969, Mol Gen Genet. 104: 172-177) Tolerant strains are identified by screening of mutagenized cells on solid nutrient solution plates containing “coumarone-derivative herbicides” or other HPPD inhibiting herbicides at wildype-lethal concentrations. Examples of the data obtained are depicted in Table 16 and FIG. 2.

In test [4] the test system is Chlamydomonas strain CMr13. The description is as above. It is filed as cell-based, Chlamydomonas reinhardtii. Particulars: read-out: IC50 of growth inhibition. As to the method: as §15, §16
Test [5] concerns Chlamydomonas strain CMr10. The test is described as above. It is filed as cell-based, Chlamydomonas reinhardtii. Conditions: read-out: IC50 of growth inhibition. As to the method:
as §15, §16

Test [6] has as its system Chlamydomonas strain CMr05. The test is described as above. It is filed as cell-based, Chlamydomonas reinhardtii. The method, then:
as §15, §16

Test [7] has as its system Chlamydomonas strain CC1961 wild-type. Described as above. It is filed as cell-based, Chlamydomonas reinhardtii. Particulars: read-out: IC50 of growth inhibition. The method, then:
as §15, §16

The test system of test [8] is Chlamydomonas strain CMr15. Described as above. It is filed as cell-based, Chlamydomonas reinhardtii. As to the method: as §15, §16
Test [9] relates to Chlamydomonas strain CMr04. The description is as above. It is filed as cell-based, Chlamydomonas reinhardtii. The method, then: as §15, §16
In a further test the test system is C. reinhardtii (CC-503). Nature of the test: C. reinhardtii growth inhibition by HPPD inhibiting herbicides. It is filed as cell-based, Chlamydomonas reinhardtii.
From the text: (§17) Bleaching herbicides with a mode of action in plastoquinone or tocopherol biosynthesis can inhibit algae growth (Tables 14 and 15). These effects can be partly reversed by intermediates of homogentisic acid biosynthesis (Table 14). To generate mutations conferring “coumarone-derivative herbicide” resistance in HPPD or HST genes, chemical or UV mutagenesis can be used. Especially unicellular organisms like Chlamydomonas reinhardtii or Scenedesmus obliquus are useful for identifying dominant mutations in herbicide resistance.
as §15

The next test concerns Scenedesmus obliquus. The experiment in a line: S. obliquus growth inhibition. It is filed as cell-based.
From the text: as §17, §15

The mark [10] stands for this setting: read-out: IC50 of growth inhibition.

The values that follow come from US20130053243A1, “PLANTS HAVING INCREASED TOLERANCE TO HERBICIDES” (BASF SE, priority 2010, published 2013).

Where two headings read alike, the source gives them in different places. Where only a bound is given, the exact number is not on record here.

Sequence of Chlamydomonas HPPD1 (A0A2K3DET7 entry or part of it): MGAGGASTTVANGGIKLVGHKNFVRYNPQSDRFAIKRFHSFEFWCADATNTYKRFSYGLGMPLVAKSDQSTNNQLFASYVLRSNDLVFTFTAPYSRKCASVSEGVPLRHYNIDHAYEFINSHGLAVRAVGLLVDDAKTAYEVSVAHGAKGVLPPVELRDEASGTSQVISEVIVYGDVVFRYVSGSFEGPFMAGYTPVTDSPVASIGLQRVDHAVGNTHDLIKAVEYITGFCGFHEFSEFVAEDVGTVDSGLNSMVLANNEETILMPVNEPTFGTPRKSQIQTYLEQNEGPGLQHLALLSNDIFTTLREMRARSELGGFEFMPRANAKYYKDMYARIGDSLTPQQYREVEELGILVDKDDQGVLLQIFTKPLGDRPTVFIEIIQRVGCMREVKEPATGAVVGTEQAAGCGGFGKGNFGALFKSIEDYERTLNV
T1 sequence (P93836 whole entry Q293N): as the sequence (P93836 whole entry Q293H) above, with H293N counted along it

What is called Ki is a dissociation constant, usually derived from enzyme kinetics or from competition with a known ligand. With `O=S1(=O)C(c2ccc(Cl)cc2Cl)=C(O)c2ncccc2N1CC(F)F` [Inhibitor 2, 3-(2,4-dichlorophenyl)-1-(2,2-difluoroethyl)-2,2-dioxo-pyrido[3,2-c]thiazin-4-ol], the Ki in test [1] was 0.044 µM; in test [2], 0.019 µM; at Arabidopsis HPPD it was 0.013 µM; at Chlamydomonas HPPD1, 0.139 µM.

In general, IC50 refers to the concentration that gives 50% inhibition. For `CS(=O)(=O)c1ccc(C(=O)C2C(=O)CCCC2=O)c([N+](=O)[O-])c1` [Mesotrione, reference compound], the IC50 in [3] (setting [10]) was above 600 µM; in test [4], above 600 µM; in [5] it was 450 µM; in [6] (setting [10]), above 600 µM; in test [7], 30 µM; in test [8] (setting [10]), 540 µM. In addition, in test [9] (setting [10]), the IC50 is above 600 µM.

`C#Cc1ccc(-c2c(O)c3ncccc3oc2=O)c(C(F)(F)F)c1` [drawing 20]: the “Growth inihibition [%] C. reinhardtii (CC-503)” value in the test on C. reinhardtii (CC-503) (c 1 * 10^−4 M) is on record as 61%; in the test with C. reinhardtii (CC-503) (c 5 * 10^−4 M) it was 90%. The results for the “Growth inihibition [%] C. reinhardtii (CC-503) + Homogentisic acid” value in the test on C. reinhardtii (CC-503) (c 1 * 10^−4 M) and with C. reinhardtii (CC-503) (c 5 * 10^−4 M) were 43% and 67%, respectively.

For `C#Cc1ccc(-c2c(O)c3ncccc3oc2=O)c(C(F)(F)F)c1` [drawing 21, 3-[4-ethynyl-2-(trifluoromethyl)phenyl]-4-hydroxy-pyrano[3,2-b]pyridin-2-one], the results for the “Growth inihibition [%] Scenedesmus obliquus” value with Scenedesmus obliquus (c 1 * 10^−4 M) and in the test on Scenedesmus obliquus (c 1 * 10^−5 M) were 100% and 77%, respectively.

Turning to `Cc1c(-c2c(O)c3ncccc3oc2=O)ccc(S(C)(=O)=O)c1C1=NOC(C)C1` (stereo not drawn) [“coumarone-derivative herbicides” 1, 4-hydroxy-3-[2-methyl-3-(5-methyl-4,5-dihydroisoxazol-3-yl)-4-methylsulfonyl-phenyl]pyrano[3,2-b]pyridin-2-one], the IC50 is above 1000 µM in test [3] (strain CMr06, read-out: IC50 of growth inhibition); 950 µM in test [4]; above 1000 µM in [5]; above 1000 µM in [6] (strain CMr05, read-out: IC50 of growth inhibition); 760 µM in [7] (strain CC1961 wild-type); above 1000 µM in [8] (strain CMr15, read-out: IC50 of growth inhibition). The IC50 in test [9] (strain CMr04, read-out: IC50 of growth inhibition) is above 1000 µM.
